Source: patent publication US8933113B2 (Merck Sharp & Dohme Corp., priority 2011, dated 2015)

Each molecule was assayed against T1, full-length human Mineralocorticoid Receptor (MR) (Homo sapiens, UniProt P08235) (assay: human MR NH Pro assay (PathHunter Protein:Protein interaction assay), MR antagonist activity). Conditions: PathHunter CHO-K1 cells overexpressing human MR; aldosterone about 0.3 nM; 6 hours at 37° C.; luminescence; read-out: Primary Assay IP rating (IP = inflection point for a given dose-response titration curve).
T1 construct: host or cells: PathHunter CHO-K1 cells
T1 sequence (P08235 1-984): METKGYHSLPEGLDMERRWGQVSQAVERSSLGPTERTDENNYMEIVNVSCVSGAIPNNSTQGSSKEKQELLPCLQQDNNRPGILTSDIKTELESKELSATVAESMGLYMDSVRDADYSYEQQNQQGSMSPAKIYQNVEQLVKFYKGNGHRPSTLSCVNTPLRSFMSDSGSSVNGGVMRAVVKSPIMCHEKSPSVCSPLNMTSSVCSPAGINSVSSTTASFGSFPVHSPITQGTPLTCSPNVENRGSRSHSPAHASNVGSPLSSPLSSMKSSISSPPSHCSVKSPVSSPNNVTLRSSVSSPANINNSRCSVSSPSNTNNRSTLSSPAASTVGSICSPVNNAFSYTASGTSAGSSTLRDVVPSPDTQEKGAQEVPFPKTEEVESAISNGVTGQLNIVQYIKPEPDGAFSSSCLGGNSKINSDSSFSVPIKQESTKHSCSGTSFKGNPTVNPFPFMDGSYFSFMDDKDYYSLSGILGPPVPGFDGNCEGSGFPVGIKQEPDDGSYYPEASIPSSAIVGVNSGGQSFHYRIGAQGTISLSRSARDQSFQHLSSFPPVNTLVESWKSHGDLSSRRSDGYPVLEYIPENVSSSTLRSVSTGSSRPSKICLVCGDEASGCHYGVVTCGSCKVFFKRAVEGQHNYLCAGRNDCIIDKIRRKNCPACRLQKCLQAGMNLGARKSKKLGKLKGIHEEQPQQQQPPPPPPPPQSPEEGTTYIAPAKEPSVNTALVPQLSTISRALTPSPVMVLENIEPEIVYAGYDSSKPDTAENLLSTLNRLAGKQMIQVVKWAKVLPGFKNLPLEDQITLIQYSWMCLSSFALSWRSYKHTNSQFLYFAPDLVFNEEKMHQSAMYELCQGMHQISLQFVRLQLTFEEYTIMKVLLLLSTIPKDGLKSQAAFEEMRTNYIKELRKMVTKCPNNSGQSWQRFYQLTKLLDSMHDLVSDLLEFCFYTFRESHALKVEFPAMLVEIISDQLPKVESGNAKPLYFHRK
Type: cell-based
Outline: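 PathHunter enzyme-complementation assay in cells of full-length human MR recruitment of a coactivator peptide, run in antagonist mode against aldosterone at about 0.3 to 1.0 nM final. Compounds are in a 10-point, 1:3 series from a 4.4 mM top. Incubation is 6 h at 37° C, then detection reagent for 1 h at RT, with a luminescence read-out.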

IC50 [µM]	Molecule
< 0.1	CCC(c1ccc(Cl)cc1)(c1nc(C#N)no1)n1ncc2c(NS(C)(=O)=O)cccc21 (centres unmarked) [Compound 158, N-(1-(1-(4-chlorophenyl)-1-(3-cyano-1,2,4-oxadiazol-5-yl)propyl)-1H-indazol-4-yl)methane sulfonamide]
< 0.1	CCC(CC(F)(F)F)(c1ccc(Cl)cc1)n1ncc2c(NS(C)(=O)=O)cccc21 (centres unmarked) [Compound 159, N-(1-(3-(4-chlorophenyl)-1,1,1-trifluoropentan-3-yl)-1H-indazol-4-yl)methanesulfonamide]
< 0.1	CCC(CCOS(C)(=O)=O)(c1ccc(Cl)cc1)n1ccc2c(NS(C)(=O)=O)cccc21 (centres unmarked) [Compound 164, 3-(4-Chlorophenyl)-3-(4-(methylsulfonamido)-1H-indol-1-yl)pentyl methanesulfonate]
< 0.1	CCC(CCOC)(c1ccc(Cl)cc1)n1ccc2c(NS(C)(=O)=O)cccc21 (centres unmarked) [Compound 165, N-(1-(3-(4-Chlorophenyl)-1-methoxypentan-3-yl)-1H-indol-4-yl)methanesulfonamide]
< 0.1	CCC(CCSC)(c1ccc(Cl)cc1)n1ccc2c(NS(C)(=O)=O)cccc21 (centres unmarked) [Compound 166, N-(1-(3-(4-chlorophenyl)-1-(methylthio)pentan-3-yl)-1H-indol-4-yl)methanesulfonamide]
< 0.1	CCC(CCC(=O)OC)(c1ccc(Cl)cc1)n1ccc2c(NS(C)(=O)=O)cccc21 (centres unmarked) [Compound 167, Methyl 4-(4-chlorophenyl)-4-(4-(methylsulfonamido)-1H-indol-1-yl)hexanoate]
< 0.1	CCC(CCC(=O)OC)(c1ccc(Cl)cc1)n1ncc2c(NS(C)(=O)=O)cccc21 (centres unmarked) [Compound 168, methyl 4-(4-chlorophenyl)-4-(4-(methylsulfonamido)-1H-indazol-1-yl)hexanoate]
< 0.1	CCC(CCCO)(c1ccc(Cl)cc1)n1ccc2c(NS(C)(=O)=O)cccc21 (centres unmarked) [Compound 169, N-(1-(3-(4-chlorophenyl)-6-hydroxyhexan-3-yl)-1H-indol-4-yl)methanesulfonamide]
< 0.1	CCC(CCCF)(c1ccc(Cl)cc1)n1ccc2c(NS(C)(=O)=O)cccc21 (centres unmarked) [Compound 170, N-(1-(3-(4-chlorophenyl)-6-fluorohexan-3-yl)-1H-indol-4-yl)methanesulfonamide]
0.1 to 0.5	CCC(/C=C/C(=O)OC)(c1ccc(Cl)cc1)n1ncc2c(NS(C)(=O)=O)cccc21 (centres unmarked) [Compound 171, (E)-methyl 4-(4-chlorophenyl)-4-(4-(methylsulfonamido)-1H-indazol-1-yl)hex-2-enoate]
< 0.1	CCC(CCC(C)=O)(c1ccc(Cl)cc1)n1ncc2c(NS(C)(=O)=O)cccc21 (centres unmarked) [Compound 172, N-(1-(3-(4-chlorophenyl)-6-oxoheptan-3-yl)-1H-indazol-4-yl)methanesulfonamide]
0.1 to 0.5	CCC(c1ccc(Cl)cc1)(C(O)COC)n1ccc2c(NS(C)(=O)=O)cccc21 (centres unmarked) [Compound 173, N-(1-(3-(4-chlorophenyl)-2-hydroxy-1-methoxypentan-3-yl)-1H-indol-4-yl)methanesulfonamide]
0.1 to 0.5	CCC(CC)(c1ccc(Cl)cc1)n1ccc2c(NS(C)(=O)=O)cccc21 [Compound 174, N-(1-(3-(4-chlorophenyl)pentan-3-yl)-1H-indol-4-yl)methanesulfonamide]
0.1 to 0.5	C=CC(CC)(c1ccc(Cl)cc1)n1ccc2c(NS(C)(=O)=O)cccc21 (centres unmarked) [Compound 175, N-(1-(3-(4-chlorophenyl)pent-1-en-3-yl)-1H-indol-4-yl)methanesulfonamide]
0.1 to 0.5	CCC(CN)(c1ccc(Cl)cc1)n1ccc2c(NS(C)(=O)=O)cccc21 (centres unmarked) [Compound 177, N-(1-(1-amino-2-(4-chlorophenyl)butan-2-yl)-1H-indol-4-yl)methanesulfonamide]
0.1 to 0.5	CCC(C#N)(c1ccc(Cl)cc1)n1ccc2c(NS(=O)(=O)CC)cccc21 (centres unmarked) [Compound 178, N-(1-(1-(4-chlorophenyl)-1-cyanopropyl)-1H-indol-4-yl)ethanesulfonamide]
< 0.1	N-(6-fluoro-1-(2-hydroxy-3-(4-(trfluoromethyl)phenyl)pentan-3-yl)-1H-indazol-4-yl)methanesulfonamide [Compound 112]
